Assay results from US11760986B2, “Evolution of proteases” (President and Fellows of Harvard College, priority 2014, dated 2023).

Columns and labels:
[1] = test system: HCV protease D168E; format: biochemical, hepatitis C virus; details: D168E versus wild-type HCV protease
Protocol: (§1) Purification and in vitro assays of evolved HCV variants. HCV protease variants were sub-cloned by Gibson assembly out of the phage genome and into the previously mentioned EP. EPs were transformed into NEB BL21 DE3 chemically competent cells. Starter cultures were grown to saturation, and 2 mL was used to inoculate 500 mL LB. At OD600=0.6, cultures were transferred to 20° C. and induced with 0.5% arabinose for 6 h. Cells were harvested by centrifugation at 5,000 g for 10 m, and resuspended in lysis/bind buffer (50 mM Tris-HCl pH 8.0, 500 mM NaCl, 10% glycerol, 5 mM imidazole). Cells were lysed by sonication for a total of 2 m, and then centrifuged for 20 m at 18,000 g to clarify the lysate. Supernatant was flowed through 0.2 mL His-pur nickel resin spin columns that were equilibrated with binding buffer (Pierce-Thermo). Resin was washed with 4 column volumes of wash buffer (50 mM Tris-HCl pH 8.0, 500 mM NaCl, 10% glycerol, 20 mM imidazole). HCV protease was eluted in 4 column volumes of 50 mM Tris-HCl pH 8.0, 500 mM NaCl, 10% glycerol, 200 mM imidazole. Samples were further purified by size exclusion chromatography on a SuperDex 75 10/300 GL column (GE Healthcare). Size exclusion was performed in 50 mM Tris-HCl pH 8.0, 100 mM NaCl, 10% glycerol, 1 mM DTT. Protein concentrations were determined by UV280 on a Nanodrop machine and calculated using an extinction coefficient of 19,000 cm^−1 M^−1 and a molecular weight of 23 kDa.
(§2) In vitro assays were performed using the commercial HCV RET Substrate 1 (Anaspec), an internally quenched probe that fluoresces upon proteolytic cleavage, according to the manufacturer's instructions. Protease and inhibitors were incubated in assay buffer at room temperature for 5 m prior to addition of substrate. […] The assay buffer contained 50 mM Tris HCl pH 8.0, 100 mM NaCl, 20% glycerol, 5 mM DTT. Assays were performed in triplicate, and initial reaction velocities were calculated and normalized to controls without inhibitor. The data was fit to the Hill Equation using Igor Pro with base and max parameters fixed at one and zero respectively.

[2] = test system: HCV protease on the HCV PA-RNAP; details: host cells incubated with inhibitor 90 min, then HCV protease phage, luminescence after 3 h
Protocol: Inhibition of PA-RNAP response in host E. coli cells. […] After 3 h of incubation at 37° C., the luminescence of each culture was measured on a Tecan Infinite Pro plate reader and normalized to OD600. In the absence of inhibitor, phage-encoded protease will activate the PA-RNAP leading to robust production of luciferase. Relative dose responses to inhibitors compared to control cells without drug were measured in triplicate.

[3] = test system: HCV protease D168Y; experiment: biochemical; parameters: species or system hepatitis C virus; details: D168Y versus wild-type HCV protease
Protocol: as §1, §2

[4] = molecular target: T1, HCV protease D168E (Hepatitis C virus genotype 1a, UniProt P27958, L1039E/L1040E/I1043Q/I1044E/L1047Q/C1073S/C1078L/I1098T/Q1106K/P1112Q/L1179I/C1185S/D1194E/N1200S, form not given); format: biochemical; details: HCV protease D168E; 40 nM protease, 7.5 μM substrate, 30° C.; IC50±standard deviation
T1 construct: 6xHis-TEVcutsite-HCV protease 2610 . .; fused on or other part: N-terminal Met-6xHis-TEV site, then an NS4A cofactor peptide ([…], about NS4A 21-33 with C22S and V30N); The peptide is fused in front of NS3 residue 4; The helicase domain is absent; the chain ends at NS3 182
Protocol: as §1, §2

[5] = molecular target: HCV protease (Hepatitis C virus genotype 1a, UniProt P27958); details: literature value (refs 35, 36); cited from earlier work
[6] = molecular target: T2, wild-type HCV protease (Hepatitis C virus genotype 1a, UniProt P27958, L1039E/L1040E/I1043Q/I1044E/L1047Q/C1073S/C1078L/I1098T/Q1106K/P1112Q/L1179I/C1185S/N1200S, form not given); experiment: In vitro HCV protease inhibition assay with internally quenched fluorescent substrate (HCV RET Substrate 1, Anaspec); format: biochemical; details: 40 nM protease, 7.5 μM substrate, 30° C., IC50±standard deviation
T2 construct: 6xHis-TEVcutsite-HCV protease 2610 . .; fused on or other part: N-terminal Met-6xHis-TEV site, then an NS4A cofactor peptide ([…], about NS4A 21-33 with C22S and V30N); The peptide is fused in front of NS3 residue 4; The helicase domain is absent; the chain ends at NS3 182
Protocol: as §1, with “Resin was washed with 4 column volumes of wash buffer (50 mM Tris-HCl pH 8.0, 500 mM NaCl, 10% glycerol, 20 mM imidazole). HCV protease was eluted in 4 column volumes of 50 mM Tris-HCl pH 8.0, 500 mM NaCl, 10% glycerol, 200 mM imidazole. Samples were further purified by size exclusion chromatography on a SuperDex 75 10/300 GL column (GE Healthcare). Size exclusion was performed in 50 mM Tris-HCl pH 8.0, 100 mM NaCl, 10% glycerol, 1 mM DTT.” left out
In vitro assays were performed using the commercial HCV RET Substrate 1 (Anaspec), an internally quenched probe that fluoresces upon proteolytic cleavage, according to the manufacturer's instructions. […] Assays were performed in triplicate, and initial reaction velocities were calculated and normalized to controls without inhibitor. […]

[7] = molecular target: T3, HCV protease D168Y (Hepatitis C virus genotype 1a, UniProt P27958, C1073S/C1078L/C1185S/D1194Y/I1043Q/I1044E/I1098T/L1039E/L1040E/L1047Q/L1179I/N1200S/P1112Q/Q1106K/T1100M/T1173A); experiment: biochemical
T3 construct: 6xHis (N); TEV cleavage site (N); NS4a cofactor peptide (fused in the construct, before NS3) (N); made in house; host or cells: E. coli NEB BL21 DE3
Protocol: as §1, §2

| Structure (SMILES) | increase of the IC50 by the mutation [1] [fold] | inhibition of cellular gene expression arising from the activity of HCV protease on the HCV PA-RNAP [2] | increase of the IC50 by the mutation [3] [fold] | IC50 [4] [µM] | IC50 [5] [µM] | IC50 [6] [µM] | IC50 [7] [µM] |
| --- | --- | --- | --- | --- | --- | --- | --- |
| C=C[C@@H]1C[C@]1(NC(=O)[C@@H]1C[C@@H](Oc2ncc(OC)c3ccc(Cl)cc23)CN1C(=O)[C@@H](NC(=O)OC(C)(C)C)C(C)(C)C)C(=O)NS(=O)(=O)C1CC1 [asunaprevir] | ~10 | in a dose-dependent manner | 30 | – | – | – | – |
| CC(C)(C)OC(=O)N[C@H]1CCCCC/C=C\[C@@H]2C[C@@]2(C(=O)NS(=O)(=O)C2CC2)NC(=O)[C@@H]2C[C@@H](OC(=O)N3Cc4cccc(F)c4C3)CN2C1=O [danoprevir] | ~30 | in a dose-dependent manner | ~30 | 0.0389 ± 0.0024 | ~0.0003 | 0.0013 ± 0.0001 | 0.0344 ± 0.0028 |
